Test results from patent US10925855B2, “Compositions comprising water dispersible nanoparticles of a retinoid compound” (GALDERMA RESEARCH & DEVELOPMENT, priority 2015, dated 2021).

What was measured:
Assay type in all cases: physicochemical
Precipitation test = conditions: every tested organic solvent at 1 mg/mL concentration
Procedure: 1 mg/ml solutions of compound A were prepared in each appropriate solvent.

[1] = Redispersibility in water; conditions: addition of water at room temperature
[2] = Solvent screening (solubility of compound A); conditions: for solubility: thermodynamic from solid, Sonication
Procedure: 10-20 mg of 3″-tert-butyl-4′-(2-hydroxyethoxy)-4″-pyrrolidin-1-yl[1,1′;3′,1″]-terphenyl-4-carboxylic acid (hereinafter “compound A”) was placed into a 30 ml vial. 200 μl of the selected solvent was added and the vial was stirred by magnetic stirring. • If the compound A was not dissolved, the vial was placed into ultrasonic bath with mild heating. • If the compound A was still not dissolved, further 200 μl of the solvent was added to the vial and the magnetic stirring and ultrasonication were repeated.
The whole procedure (addition of the solvent, stirring, ultrasonication, heating) was repeated stepwise until every compound A particles was dissolved and a clear, translucent liquid was obtained.

[3] = Stabilizer screening (colloid stability after precipitation); conditions: Compound A 1.0 mg
Procedure: If the colloid solution was stable over 2 hours (no aggregation, sedimentation, crystal forming), and no aggregation occurred, the sample was lyophilized. • If precipitation occurred, however the colloid solution was not stable over the whole solid formulation procedure, other stabilizers were tested. Results

CC(C)(C)c1cc(-c2cc(-c3ccc(C(=O)O)cc3)ccc2OCCO)ccc1N1CCCC1 [Compound A, 3″-tert-butyl-4′-(2-hydroxyethoxy)-4″-pyrrolidin-1-yl[1,1′;3′,1″]-terphenyl-4-carboxylic acid]
Stable for 1 day at RT: Observation: Stable for ([3]; 2 mg Luviskol VA64, 1 mL EtOH, 7 mL 0.5 mg/mL NaOAc solution, at RT)
4900 µg/mL: solubility ([2]; organic solvent or mixture, Ethanol, RT)
Cloudy immediately: Observation ([3]; 2 mg Lutrol F 127, 1 mL MeOH, 4 mL water)
Colloid, Stable for 30 min: Observation: Colloid, Stable for ([3]; 2 mg Luviskol VA64, 1 mL EtOH, 4 mL water) | Observation: Colloid, Stable for ([3]; 2 mg PVP10, 1 mL EtOH, 4 mL water)
< 50 µg/mL: solubility ([2]; Water, T = 45° C.)
400 µg/mL: solubility ([2]; organic solvent or mixture, Acetonitrile, RT)
1700 µg/mL: solubility ([2]; organic solvent or mixture, Methanol, RT)
3000 µg/mL: solubility ([2]; organic solvent or mixture, Acetone, RT) | solubility ([2]; organic solvent or mixture, Isopropanol, RT)
soluble: solubility profile (in words) ([2]; pyridine) | solubility profile (in words) ([2]; tetrahydrofuran)
Aggregated within 1 hour: Observation: Aggregated within ([3]; 2 mg Luviskol VA64, 1 mL EtOH, 7 mL 0.5 mg/mL DSS solution) | Observation: Aggregated within ([3]; 2 mg Luviskol VA64, 1 mL EtOH, 7 mL 0.5 mg/mL SDS solution) | Observation: Aggregated within ([3]; 2 mg PEOX50, 1 mL EtOH, 7 mL 0.5 mg/mL DSS solution) | Observation: Aggregated within ([3]; 2 mg PEOX50, 1 mL EtOH, 7 mL 0.5 mg/mL NaOAc solution) | Observation: Aggregated within ([3]; 2 mg PEOX50, 1 mL EtOH, 7 mL 0.5 mg/mL SDS solution)
very slightly soluble: solubility profile (in words) ([2]; acetonitrile)
34500 µg/mL: solubility ([2]; organic solvent or mixture, Pyridine, RT)
Colloid, Stable for 10 min: Observation: Colloid, Stable for ([3]; 2 mg PEOX50, 1 mL EtOH, 4 mL water)
Aggregated after 25 min: Observation: Aggregated after ([3]; 2 mg Luviskol VA64, 1 mL MeOH, 4 mL water)
Aggregated: Observation ([3]; 2 mg Klucel EF, 1 mL EtOH, 4 mL water) | Observation ([3]; 2 mg Klucel EF, 1 mL IPA, 4 mL water) | Observation ([3]; 2 mg Klucel EF, 1 mL MeOH, 4 mL water) | Observation ([3]; 2 mg Klucel EF, 1 mL THF, 4 mL water) | Observation ([3]; 2 mg Klucel LF, 1 mL EtOH, 4 mL water) | Observation ([3]; 2 mg Klucel LF, 1 mL IPA, 4 mL water) | Observation ([3]; 2 mg Klucel LF, 1 mL MeOH, 4 mL water) | Observation ([3]; 2 mg Klucel LF, 1 mL THF, 4 mL water) | Observation ([3]; 2 mg Lutrol F 127, 1 mL EtOH, 4 mL water) | Observation ([3]; 2 mg Lutrol F 127, 1 mL THF, 5 mL water) | Observation ([3]; 2 mg Luviskol VA64, 1 mL IPA, 4 mL water) | Observation ([3]; 2 mg Luviskol VA64, 1 mL THF, 4 mL water) | Observation ([3]; 2 mg PEG2000, 1 mL EtOH, 4 mL water) | Observation ([3]; 2 mg PEG2000, 1 mL IPA, 4 mL water) | Observation ([3]; 2 mg PEG2000, 1 mL MeOH, 4 mL water) | Observation ([3]; 2 mg PEG2000, 1 mL THF, 4 mL water) | Observation ([3]; 2 mg PEG6000, 1 mL EtOH, 4 mL water) | Observation ([3]; 2 mg PEG6000, 1 mL MeOH, 4 mL water) | Observation ([3]; 2 mg PEOX50, 1 mL IPA, 4 mL water) | Observation ([3]; 2 mg PEOX50, 1 mL MeOH, 4 mL water) | Observation ([3]; 2 mg PEOX50, 1 mL THF, 4 mL water) | Observation ([3]; 2 mg PEOX500, 1 mL EtOH, 4 mL water) | Observation ([3]; 2 mg PEOX500, 1 mL IPA, 4 mL water) | Observation ([3]; 2 mg PEOX500, 1 mL MeOH, 4 mL water) | Observation ([3]; 2 mg PEOX500, 1 mL THF, 4 mL water) | Observation ([3]; 2 mg PMAMVE, 1 mL EtOH, 4 mL water) | Observation ([3]; 2 mg PMAMVE, 1 mL MeOH, 4 mL water)
precipitated: precipitation on addition of anti-solvent (Precipitation test)
Aggregated within 5 min: Observation: Aggregated within ([3]; 2 mg Luviskol VA64, 1 mL ACE, 4 mL water) | Observation: Aggregated within ([3]; 2 mg PEOX50, 1 mL ACE, 4 mL water) | Observation: Aggregated within ([3]; 2 mg PEOX500, 1 mL ACE, 4 mL water)
practically insoluble: solubility profile (in words) ([2]; water)
not wetted by water: Redispersibility [1]
slightly soluble: solubility profile (in words) ([2]; acetone) | solubility profile (in words) ([2]; ethanol) | solubility profile (in words) ([2]; isopropanol) | solubility profile (in words) ([2]; methanol)
30500 µg/mL: solubility ([2]; organic solvent or mixture, Tetrahydrofuran, RT)
Aggregated immediately: Observation ([3]; 2 mg Lutrol F 127, 1 mL ACE, 4 mL water) | Observation ([3]; 2 mg Luviskol VA64, 1 mL EtOH, 7 mL 0.05 mg/mL BAC solution) | Observation ([3]; 2 mg Luviskol VA64, 1 mL EtOH, 7 mL 0.05 mg/mL DSS solution) | Observation ([3]; 2 mg Luviskol VA64, 1 mL EtOH, 7 mL 0.05 mg/mL Mannitol solution) | Observation ([3]; 2 mg Luviskol VA64, 1 mL EtOH, 7 mL 0.05 mg/mL NaOAc solution) | Observation ([3]; 2 mg Luviskol VA64, 1 mL EtOH, 7 mL 0.05 mg/mL SDS solution) | Observation ([3]; 2 mg Luviskol VA64, 1 mL EtOH, 7 mL 0.05 mg/mL citric acid solution) | Observation ([3]; 2 mg Luviskol VA64, 1 mL EtOH, 7 mL 0.5 mg/mL BAC solution) | Observation ([3]; 2 mg Luviskol VA64, 1 mL EtOH, 7 mL 0.5 mg/mL Mannitol solution) | Observation ([3]; 2 mg Luviskol VA64, 1 mL EtOH, 7 mL 0.5 mg/mL citric acid solution) | Observation ([3]; 2 mg PEG2000, 1 mL ACE, 4 mL water) | Observation ([3]; 2 mg PEG6000, 1 mL ACE, 4 mL water) | Observation ([3]; 2 mg PEOX50, 1 mL EtOH, 7 mL 0.5 mg/mL citric acid solution) | Observation ([3]; 2 mg PVP10, 1 mL EtOH, 7 mL 0.05 mg/mL BAC solution) | Observation ([3]; 2 mg PVP10, 1 mL EtOH, 7 mL 0.05 mg/mL DSS solution) | Observation ([3]; 2 mg PVP10, 1 mL EtOH, 7 mL 0.05 mg/mL Mannitol solution) | Observation ([3]; 2 mg PVP10, 1 mL EtOH, 7 mL 0.05 mg/mL NaOAc solution)
